# According to patent publication US7365095B2, “Chromane and chromene derivatives and uses thereof” (Wyeth, priority 2005, dated 2008):
# Structures can show the parent of a compound that is named as a salt.
# Key:
# [1] = target: T1, human 5-HT2C receptor (Homo sapiens, UniProt P28335); experiment: calcium mobilization (FLIPR) in CHO cells stably expressing the human 5-HT2C receptor; type: cell-based; settings: for Emax: CHO, read-out: 5-HT2C Function EMax (%); for EC50: calcium mobilization, read-out: 5-HT2C Function EC50
# T1 sequence (P28335 33-458): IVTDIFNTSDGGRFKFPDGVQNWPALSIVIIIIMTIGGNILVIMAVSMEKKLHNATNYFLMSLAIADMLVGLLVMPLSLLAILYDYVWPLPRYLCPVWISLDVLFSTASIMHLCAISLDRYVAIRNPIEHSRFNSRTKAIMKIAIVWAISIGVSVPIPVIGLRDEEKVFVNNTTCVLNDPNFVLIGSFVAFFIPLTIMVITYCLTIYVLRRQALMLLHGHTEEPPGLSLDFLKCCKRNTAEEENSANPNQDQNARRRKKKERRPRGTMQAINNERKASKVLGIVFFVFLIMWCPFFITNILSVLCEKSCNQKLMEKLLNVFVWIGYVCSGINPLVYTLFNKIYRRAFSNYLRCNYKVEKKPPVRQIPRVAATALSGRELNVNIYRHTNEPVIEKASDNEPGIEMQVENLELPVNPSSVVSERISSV
# [2] = target: T2, human 5-hydroxytryptamine-2C (h5-HT2C) receptor (Homo sapiens, UniProt P28335); experiment: [125I]DOI binding to membranes of CHO cells expressing h5-HT2C receptor; settings: read-out: 5-HT2C Binding Ki avg
# T2 construct: expressed in transfected cells; host or cells: CHO (Chinese Hamster Ovary) cells; membrane preparation
# T2 sequence (P28335 33-458): T1 sequence (P28335 33-458)
SMILES,Emax [1] [%],EC50 [1] [nM],Ki [2] [nM]
"COc1ccc(-c2cccc3c2O[C@@H](CN)CC3)c(OC)c1 [Compound 16, {[(2R)-8-(2,4-dimethoxyphenyl)-3,4-dihydro-2H-chromen-2-yl]methyl}amine hydrochloride]",100,< 50,≤ 10
"CNC[C@H]1C=Cc2cccc(-c3c(Cl)cccc3Cl)c2O1 [Compound 59, {[(2R)-8-(2,6-dichlorophenyl)-2H-chromen-2-yl]methyl}methylamine hydrochloride]",90,< 50,≤ 10
"NC[C@H]1CCc2cc(F)cc(-c3ccccc3)c2O1 [Compound 48, {[(2R)-6-fluoro-8-phenyl-3,4-dihydro-2H-chromen-2-yl]methyl}amine hydrochloride]",90,50 to 200,≤ 10
"NC[C@H]1CCCc2cc(F)cc(-c3c(Cl)cccc3Cl)c2O1 [Compound 68, {[(2R)-9-(2,6-dichlorophenyl)-7-fluoro-2,3,4,5-tetrahydro-1-benzoxepin-2-yl]methyl}amine hydrochloride]",80,50 to 200,10 to 50
"CNC[C@H]1CCc2cc(F)cc(-c3cccnc3)c2O1 [Compound 44, {[(2R)-6-fluoro-8-pyridin-3-yl-3,4-dihydro-2H-chromen-2-yl]methyl}methylamine hydrochloride]",80,> 200,10 to 50
"CNC[C@H]1CCc2cc(F)cc(-c3ccccc3Cl)c2O1 [Compound 39, {[(2R)-8-(2-chlorophenyl)-6-fluoro-3,4-dihydro-2H-chromen-2-yl]methyl}methylamine hydrochloride]",100,< 50,≤ 10
"CNC[C@H]1CCc2cc(F)cc(-c3ccc(Cl)cc3Cl)c2O1 [Compound 41, {[(2R)-8-(2,4-dichlorophenyl)-6-fluoro-3,4-dihydro-2H-chromen-2-yl]methyl}methylamine hydrochloride]",90,50 to 200,10 to 50
"NC[C@H]1CCc2cccc(-c3ccccc3Cl)c2O1 [Compound 11, {[(2R)-8-(2-chlorophenyl)-3,4-dihydro-2H-chromen-2-yl]methyl}amine hydrochloride]",100,< 50,≤ 10
"CCNC[C@H]1CCc2cc(F)cc(-c3c(Cl)cccc3Cl)c2O1 [Compound 58, N-{[(2R)-8-(2,6-dichlorophenyl)-6-fluoro-3,4-dihydro-2H-chromen-2-yl]methyl}ethanamine hydrochloride]",60,< 50,≤ 10
"CNCC1CCc2cccc(-c3ccccc3Cl)c2O1 (stereo not drawn) [Compound 1, N-{[8-(2-chlorophenyl)-3,4-dihydro-2H-chromen-2-yl]methyl}-N-methylamine hydrochloride]",80,< 50,10 to 50
"Cc1ccccc1-c1cc(F)cc2c1O[C@@H](CN)CC2 [Compound 49, {[(2R)-6-fluoro-8-(2-methylphenyl)-3,4-dihydro-2H-chromen-2-yl]methyl}amine hydrochloride]",90,< 50,≤ 10
"NCC1CCc2cccc(-c3ccccc3Cl)c2O1 (stereo not drawn) [Compound 2, {[8-(2-chlorophenyl)-3,4-dihydro-2H-chromen-2-yl]methyl}amine trifluoroacetate]",80,< 50,≤ 10
"CNC[C@H]1CCc2cc(F)cc(-c3ccccc3)c2O1 [Compound 42, {[(2R)-6-fluoro-8-phenyl-3,4-dihydro-2H-chromen-2-yl]methyl}methylamine hydrochloride]",90,50 to 200,≤ 10
"Cc1ccccc1-c1cccc2c1O[C@H](CN)CC2 [Compound 33, {[(2S)-8-(2-methylphenyl)-3,4-dihydro-2H-chromen-2-yl]methyl}amine hydrochloride]",80,> 200,10 to 50
"Cc1ccccc1-c1cccc2c1O[C@@H](CN)CC2 [Compound 17, {[(2R)-8-(2-methylphenyl)-3,4-dihydro-2H-chromen-2-yl]methyl}amine hydrochloride]",80,< 50,≤ 10
"NC[C@@H]1CCc2cccc(-c3ccc(Cl)cc3Cl)c2O1 [Compound 29, {[(2S)-8-(2,4-dichlorophenyl)-3,4-dihydro-2H-chromen-2-yl]methyl}amine hydrochloride]",80,> 200,10 to 50
"CNC[C@H]1CCc2cccc(-c3cccnc3)c2O1 [Compound 9, N-methyl-N-{[(2R)-8-pyridin-3-yl-3,4-dihydro-2H-chromen-2-yl]methyl}amine hydrochloride]",100,< 50,≤ 10

SMILES,Emax [1] [%],EC50 [1] [nM],Ki [2] [nM]
"COc1ccccc1-c1cc(F)cc2c1O[C@@H](CN)C=C2 [Compound 65, {[(2R)-6-fluoro-8-(2-methoxyphenyl)-2H-chromen-2-yl]methyl}amine hydrochloride]",80,< 50,≤ 10
"CNC[C@H]1CCc2cccc(-c3ccc(OC)cc3OC)c2O1 [Compound 7, N-{[(2R)-8-(2,4-dimethoxyphenyl)-3,4-dihydro-2H-chromen-2-yl]methyl}-N-methylamine hydrochloride]",90,< 50,≤ 10
"CNC[C@@H]1CCc2cccc(-c3cc(Cl)ccc3Cl)c2O1 [Compound 20, {[(2S)-8-(2,5-dichlorophenyl)-3,4-dihydro-2H-chromen-2-yl]methyl}methylamine hydrochloride]",90,< 50,≤ 10
"NC[C@H]1C=Cc2cc(F)cc(-c3ccccc3Cl)c2O1 [Compound 64, {[(2R)-8-(2-chlorophenyl)-6-fluoro-2H-chromen-2-yl]methyl}amine hydrochloride]",90,< 50,≤ 10
"CNC[C@H]1CCc2cccc(-c3ccccc3Cl)c2O1 [Compound 10, N-{[(2R)-8-(2-chlorophenyl)-3,4-dihydro-2H-chromen-2-yl]methyl}-N-methylamine hydrochloride]",100,< 50,≤ 10
"COc1ccccc1-c1cc(F)cc2c1O[C@@H](CN)CC2 [Compound 38, 1-[(2R)-6-fluoro-8-(2-methoxyphenyl)-3,4-dihydro-2H-chromen-2-yl]methanamine hydrochloride]",80,< 50,≤ 10
"NC[C@H]1CCc2cc(F)cc(-c3cccnc3)c2O1 [Compound 50, {[(2R)-6-fluoro-8-pyridin-3-yl-3,4-dihydro-2H-chromen-2-yl]methyl}amine hydrochloride]",90,< 50,10 to 50
"COc1ccc(-c2cccc3c2O[C@H](CN)CC3)c(OC)c1 [Compound 32, {[(2S)-8-(2,4-dimethoxyphenyl)-3,4-dihydro-2H-chromen-2-yl]methyl}amine hydrochloride]",90,50 to 200,10 to 50
"NC[C@@H]1CCc2cc(F)cc(-c3ccc(Cl)cc3Cl)c2O1 [Compound 56, {[(2S)-8-(2,4-dichlorophenyl)-6-fluoro-3,4-dihydro-2H-chromen-2-yl]methyl}amine hydrochloride]",80,50 to 200,10 to 50
"Cc1ccccc1-c1cc(F)cc2c1O[C@H](CN)CC2 [Compound 53, {[(2S)-6-fluoro-8-(2-methylphenyl)-3,4-dihydro-2H-chromen-2-yl]methyl}amine hydrochloride]",70,50 to 200,10 to 50
"NC[C@H]1CCc2cc(F)cc(-c3ccccc3Cl)c2O1 [Compound 45, {[(2R)-8-(2-chlorophenyl)-6-fluoro-3,4-dihydro-2H-chromen-2-yl]methyl}amine hydrochloride]",90,< 50,≤ 10
"COc1ccccc1-c1cccc2c1O[C@@H](CN)CC2 [Compound 15, {[(2R)-8-(2-methoxyphenyl)-3,4-dihydro-2H-chromen-2-yl]methyl}amine hydrochloride]",90,< 50,≤ 10
"CNC[C@H]1CCc2cccc(-c3cc(Cl)ccc3Cl)c2O1 [Compound 3, {[(2R)-8-(2,5-dichlorophenyl)-3,4-dihydro-2H-chromen-2-yl]methyl}methylamine hydrochloride]",90,< 50,≤ 10
"NC[C@H]1CCCc2cccc(-c3c(Cl)cccc3Cl)c2O1 [Compound 67, {[(2R)-9-(2,6-dichlorophenyl)-2,3,4,5-tetrahydro-1-benzoxepin-2-yl]methyl}amine hydrochloride]",80,50 to 200,10 to 50
"NC[C@@H]1CCc2cccc(-c3ccccc3Cl)c2O1 [Compound 27, {[(2S)-8-(2-chlorophenyl)-3,4-dihydro-2H-chromen-2-yl]methyl}amine hydrochloride]",80,50 to 200,10 to 50
"NC[C@@H]1CCc2cccc(-c3cc(Cl)ccc3Cl)c2O1 [Compound 28, {[(2S)-8-(2,5-dichlorophenyl)-3,4-dihydro-2H-chromen-2-yl]methyl}amine hydrochloride]",100,50 to 200,10 to 50
